{"source": "paper PMC1177995", "about": "(Virology Journal, 2005)", "key": {"[1]": {"test_system": "DENV strain New Guinea-2", "format": "cell-based, dengue virus"}, "[2]": {"test_system": "WNV strain Egypt 101", "format": "cell-based, West Nile virus", "conditions": "100 μg/ml, compared to the original peptide"}}, "note": "Where a SMILES comes first, the peptide text is derived from it.", "data": [{"molecule": "CC[C@H](C)[C@H](NC(=O)[C@H](C)NC(=O)CNC(=O)[C@H](Cc1ccccc1)NC(=O)[C@@H](NC(=O)[C@H](CCC(N)=O)NC(=O)[C@H](Cc1c[nH]cn1)NC(=O)[C@H](CC(C)C)NC(=O)[C@H](C)NC(=O)[C@H](CCCCN)NC(=O)CNC(=O)[C@@H](NC(=O)[C@H](CO)NC(=O)[C@@H](NC(=O)[C@H](Cc1ccccc1)NC(=O)[C@@H](NC(=O)CNC(=O)CNC(=O)[C@H](CC(C)C)NC(=O)[C@H](CO)NC(=O)CNC(=O)[C@H](Cc1ccccc1)NC(=O)[C@H](CC(=O)O)NC(=O)[C@H](Cc1c[nH]c2ccccc12)NC(=O)[C@H](C)NC(=O)[C@@H](NC(=O)[C@H](CC(=O)O)NC(=O)CNC(=O)[C@H](CC(C)C)NC(=O)[C@@H](NC(=O)[C@H](C)NC(=O)[C@@H](N)CCSC)[C@@H](C)CC)[C@@H](C)O)C(C)C)[C@@H](C)O)[C@@H](C)CC)C(C)C)C(=O)N[C@@H](Cc1ccc(O)cc1)C(=O)O", "note": "[DN59] (H-MAILGDTAWDFGSLGGVFTSIGKALHQVFGAIY-OH)", "values": [{"measurement": "maximum inhibitory activity against DENV", "setting": "[1]; at 20 μM, dose-response, mean +/- SD, triplicate", "result": "100.0 +/- 0.5%"}]}, {"molecule": "VATWHLDWSREFPLFLMNS [Scrambled WN83]", "values": [{"measurement": "inhibitory effect of scrambled peptide against WNV", "setting": "[2]", "result": "no inhibitory activity"}]}, {"molecule": "YFIDTSGAIWGASHLTGVLFDFMGIQGGAVLAK [Scrambled DN59]", "values": [{"measurement": "inhibitory effect of scrambled peptide against DENV", "setting": "[1]; 100 μg/ml, compared to the original peptide", "result": "no inhibitory activity"}]}]}
